Reference: US20260355168A1, “COMPOSITIONS AND METHODS FOR TREATING AND DETECTING CANCER” (CASE WESTERN RESERVE UNIVERSITY, priority 2022, published 2026)
“Also recorded” adds a separate entry of the source.

Columns and labels:
Format in all cases: cell-based, human
LN229 cells [1] = experiment: LN229 glioma sphere formation and growth assay; settings: for Effect on LN229 sphere formation: day 1; for Effect on LN229 sphere formation / Effect on LN229 sphere growth: in words
Experimental: FIGS. 5(A-E) illustrate a histogram and images showing the results of the LN229 sphere formation and growth assays. Selected inhibitors, activators, and control compounds identified in LN229 and/or U87 scratch wound closure assays were retested at 100 μM in a secondary assay for glioma cell (LN229) sphere formation and growth. A. Histogram showing the effects of the indicated compounds on sphere formation. On day 1, sphere footprint areas were determined and normalized to the average footprint area of the unblinded vehicle-treated controls. On day 1, a larger footprint area indicates inhibition of aggregation. B. Histogram showing the effects of the indicated compounds on sphere growth. On day 7, the changes in sphere footprint areas were calculated and normalized to the average size change of the unblinded vehicle-treated controls. On day 7, a smaller value indicates reduced growth. […] Data is presented as percentages±s.e.m. of 2-4 replicates. Representative images of samples treated with DMSO (C) and two priority inhibitors (D and E) are shown. Relative day 1 footprint areas and day 7 growth measurements are indicated for each example.
FIGS. 15(A-D) illustrate a histogram and images of titration of selected compounds on LN229 sphere formation and growth. LN229 cells were plated onto non-adherent surfaces and treated with the indicated compounds at 100, 50, and 25 μM. A. On day 1, sphere footprint areas were determined and normalized to the average footprint area of the unblinded vehicle-treated controls. On day 1, a larger foot-print area indicates inhibition of aggregation. B. On day 7, the changes in sphere footprint areas were calculated and normalized to the average size change of the unblinded vehicle-treated controls. On day 7, a smaller value indicates reduced growth. […] Data is presented as percentages±s.e.m. The initial test at 100 μM and the follow-up at that dose with titration is shown. Each bar is the average of 2 replicates. Representative day 1 (C) and day 7 (D) images of samples treated with two priority inhibitors are shown. Relative day 1 sphere footprint areas and day 7 growth for each example are indicated.
Cells were seeded at a density of 7500 cells per well into the internal wells of 96-well plates coated with 0.75% (wt/vol) PVA as previously described. Compounds were added (2×replicates per treatment) at the indicated final concentrations, and control wells were treated with matching concentrations of DMSO. The external wells of the plates were filled with PBS to buffer against edge effects, and the cells were incubated at 37 °C and 5% CO2 for 7 days. A Leica CTR6500 microscope fitted with an automated stage was used to capture brightfield images on day 1 and day 7, and sphere footprint areas were measured using Image J (v1.52a http://imagej.nih.gov/ij) as previously described. To quantify the effects of the compounds on day 1, the footprint areas of the treated wells were normalized to the average area of the matched DMSO control wells. To quantify the effects of the compounds on sphere growth, the change in the sphere footprint areas was calculated ([…]) and then normalized to the average size change of the matched DMSO samples. All values are presented as average percentages±s.e.m.
We tested the effects of twenty-four compounds (11 flagged as inhibitory, 4 as stimulatory, and nine as inert in the initial scratch-wound screen, FIG. 2) on the ability of LN229 cells to mediate cell-cell adhesion and grow in 3D culture on non-adherent surfaces. To quantify sphere formation (FIG. 5A), the footprint areas of aggregates were measured on day 1 and normalized to that of the DMSO control. At this time point, a larger footprint size (>120%) indicates inhibition, i.e., the failure of cells to form a compact aggregate. To quantify sphere growth (FIG. 5B), we calculated the percent changes in sphere footprint areas between day 1 and day 7 and normalized them to that of the DMSO controls.

LN229 cells [2] = experiment: LN229 scratch wound healing assay; settings: for activity at 100 µM: Homo sapiens, LN-229, normalized to DMSO controls, read-out: LN229 scratch wound closure relative to DMSO controls
From the text: FIGS. 3(A-D) illustrate a histogram and images of the LN229 scratch wound assays. A. Histogram showing the effects of all soluble wedge-targeted compounds on LN229 scratch wound closure. Cell movement into the scratches was quantified from scratch wound widths at the start and end of the assay and normalized to the average movement of cells in the unblinded DMSO control samples. Data is presented as average percentages±standard error of the means (s.e.m.), and compound bar codes are shown on the x-axis. The majority of compounds were screened with an n=2. Some priority compounds were screened with 3-6 replicates. Representative endpoint images of samples treated with DMSO (B) and two priority inhibitors (C and D) are shown. The relative migration distances for each example are indicated.
(§1) Cells were seeded at a density of 2.7×10^4 cells per well into the internal wells of Incuyte1 Imagelock 96-well plates (Essen BioScience Inc., Ann Arbor, MI) and cultured overnight to form monolayers. Monolayers were wounded with an IncuCyte1 96-well Woundmaker Tool per the manufacturer's instructions. The outer wells were filled with PBS to buffer edge effects, and then the wounded monolayers were cultured in 100 μl of fresh media with compounds or DMSO (2×replicates at 100 μM or 1%, respectively) at 37 °C and 5% CO2. Images were captured every 4 hrs. using an Incucyte live cell imaging system equipped with the Scratch Wound Module. Scratch wound widths were calculated, per the manufacturer's instructions, at TO and at endpoint (typically T12 for LN229 and U87 cells and T8 for Gli36), which was taken as the last timepoint before wound closure. The cell migration distance was calculated from scratch widths [(T0Width−TendpointWidth)/2] and normalized to the average distance migrated by the DMSO controls. Values are presented as average percentages±standard errors of the means (s.e.m.). The majority of compounds were screened with an n of two, but the n for priority hits ranges from 2-6.
Scratch assays measure the ability of cells to migrate into a wound and close it creating a monolayer.

Gli36 cells = experiment: Gli36 scratch wound healing assay; settings: 100 μM; for Effect on Gli36 migration (scratch wound closure): endpoint 8 h, in words
Experimental: FIGS. 4(A-D) illustrate a histogram and images showing the results of the Gli36 scratch wound assays. Selected inhibitors, activators, and control compounds identified in LN229 and/or U87 scratch wound closure assays were retested at 100 μM for effects on Gli36 migration. A. Histogram showing the normalized migration distance for each treated sample. Data is presented as average % movement±s.e.m, and compound bar codes are shown on the x-axis. The majority of compounds were screened with an n of 2-4. Representative endpoint images of samples treated with DMSO (B) and two priority inhibitors (C and D) are shown. The relative migration distances for each example are shown.
as §1
All inhibitors identified in the primary screens, a selection of U87-specific activators, and some apparently inert control compounds were rescreened in scratch wound assays using an additional glioma cell line (Gli36) (FIG. 4A).

CCN(C(=O)CN1C(=O)NC(C)(CCC(C)C)C1=O)c1cccc2ccccc12 (stereo not drawn) [Compound 247677616]
Effect on LN229 sphere formation (LN229 cells [1]; 100 μM): completely blocked sphere formation | Effect on LN229 cell morphology in scratch assay (LN229 cells [2]; 100 μM): rounding | activity at 100 µM (LN229 cells [2]): < 60% | Effect on Gli36 cell morphology in scratch assay (Gli36 cells): dramatic effect on Gli36 cell morphology

O=C(NCc1nc(-c2ccncc2)no1)c1ccc(Cl)c(S(=O)(=O)NCc2ccccc2)c1 [Compound 247678791]
Effect on LN229 sphere formation (LN229 cells [1]; 50 μM): slowed aggregation at 100 and 50 μM | Effect on LN229 sphere formation (LN229 cells [1]; 100 μM): aggregated more slowly than controls; also recorded: slowed aggregation at 100 and 50 μM | Effect on LN229 sphere growth (LN229 cells [1]; 100 μM, day 7): grew poorly in 3D culture | sphere growth relative to control at 100 µM (LN229 cells [1]; Homo sapiens, LN-229, 168 h, read-out: LN229 sphere growth relative to control (threshold for inhibition), heading: LN229 sphere growth relative to control, 100 μM, day 7): < 60% | Effect on LN229 cell morphology in scratch assay (LN229 cells [2]; 100 μM): subtle effects on the morphology of LN229 cells | activity at 100 µM (LN229 cells [2]): < 60% | Effect on Gli36 cell morphology in scratch assay (Gli36 cells): did not dramatically affect Gli36 cell morphology | Effect on Gli36 migration (scratch wound closure) (Gli36 cells): moderate inhibitor

COc1cc(C)ccc1OCC(=O)Nc1nc(-c2c[nH]c(C(N)=O)c2)cs1 [Compound 247678835]
Effect on LN229 sphere formation (LN229 cells [1]; 50 μM): condensation was slowed | Effect on LN229 sphere growth (LN229 cells [1]; 50 μM, day 7): grew poorly in culture | Effect on LN229 sphere formation (LN229 cells [1]; 100 μM): failed to compact and formed a mat of cells at the bottom of the well; also recorded: dramatically disrupted sphere formation at 100 μM | minimal effective concentration (LN229 cells [1]; Homo sapiens, LN-229, titration 100, 50, 25 μM, read-out: Lowest dose effective at inhibiting LN229 sphere growth): 50 µM | Effect on LN229 cell morphology in scratch assay (LN229 cells [2]; 100 μM): rounded with no ruffles | Effect on LN229 scratch wound closure / migration (LN229 cells [2]; 100 μM, in words): completely blocked the movement of cells into the scratch; also recorded: strongest inhibitor identified in the initial screen of LN229 migration | activity at 100 µM (LN229 cells [2]): < 60% | Effect on Gli36 cell morphology in scratch assay (Gli36 cells): reduced the appearance of processes and cell chains at the scratch edge | Effect on Gli36 migration (scratch wound closure) (Gli36 cells): strong priority inhibitor
